Like-named read-outs stand apart in the source and are kept apart here.
Assays:
[1] = target: GDP-bound NRAS wild-type protein (Homo sapiens, UniProt P01111); test: Binding to NRAS by surface plasmon resonance (SPR), KD and KD ratio to KRAS; conditions: ratio of KD for GDP-bound NRAS wild-type protein to KD for KRAS
In short: (§1)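 GDP-loaded biotinylated Avi-tag RAS proteins (E. coli-expressed) captured on a Biotin CAPture chip at ~100–300 RU; single-cycle kinetics at 30°C, 100 µL/min, 75 s injections of rising compound concentrations. HBS pH 7.4 running buffer with 1 mM DTT, 10 mM MgCl2, 10 µM GDP, 4% DMSO. KD from 1:1 binding fit.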

[2] = target: HRAS wild-type protein (Homo sapiens, UniProt P01112); test: Binding to HRAS by surface plasmon resonance (SPR), KD and KD ratio to KRAS; conditions: ratio of KD for HRAS wild-type protein to KD for KRAS
In short: as §1

[3] = test system: human lung cancer strain NCI-H441; type: cell-based
In short: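 Readout: […] after the ATP-based reagent. Compound: serial dilutions in dimethyl sulfoxide.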

[4] = NCI-H441 cells, 4 days, CellTiter-Glo, read-out: NCl-H441 IC50

HRAS wild-type protein, sequence (P01112 whole entry): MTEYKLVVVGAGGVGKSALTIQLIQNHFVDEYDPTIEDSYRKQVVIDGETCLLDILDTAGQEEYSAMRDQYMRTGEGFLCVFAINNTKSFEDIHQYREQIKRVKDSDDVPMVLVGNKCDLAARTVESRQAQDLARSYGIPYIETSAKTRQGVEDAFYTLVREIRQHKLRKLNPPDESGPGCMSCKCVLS
GDP-bound NRAS wild-type protein, sequence (P01111 whole entry): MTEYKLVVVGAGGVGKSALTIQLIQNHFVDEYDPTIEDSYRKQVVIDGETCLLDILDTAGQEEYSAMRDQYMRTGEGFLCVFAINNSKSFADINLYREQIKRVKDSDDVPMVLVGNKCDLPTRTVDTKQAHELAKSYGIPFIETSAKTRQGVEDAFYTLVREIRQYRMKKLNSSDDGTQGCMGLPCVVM

| Structure (SMILES) | NRAS /KRAS [1] | HRAS /KRAS [2] | IC50 [3] [nM] | IC50 [3, 4] [nM] |
| --- | --- | --- | --- | --- |
| CCC[C@H]1C(=O)N[C@@H]([C@@H](C)CC)C(=O)N(C2CC2)CC(=O)N(C)[C@H]2C/C=C\CCN(C2=O)[C@@H](Cc2ccc(C)cc2)C(=O)N(C)CC(=O)N[C@@H](CCc2cc(C)c(C(F)F)c(Cl)c2)C(=O)N2C[C@H](OCC)C[C@H]2C(=O)NC2(CC(C)(C)C2)C(=O)N(C)[C@@H](C2CCCC2)C(=O)N(C)[C@H](C(=O)N(C)C)CC(=O)N1C [PP2875] | A (a compound having 10 or more and less than 20 is denoted as A) | A (a compound having 10 or more and less than 20 is denoted as A) | 121 | – |
| CCC[C@H]1C(=O)N[C@@H]([C@@H](C)CC)C(=O)N(C2CC2)CC(=O)N(C)[C@H]2C/C=C\CCN(C2=O)[C@@H](Cc2ccc(C)cc2)C(=O)N(C)CC(=O)N[C@@H](CCc2cc(Cl)c(C(F)F)c(Cl)c2)C(=O)N2C[C@H](OCC)C[C@H]2C(=O)NC2(CC(C)(C)C2)C(=O)N(C)[C@@H](C2CCCC2)C(=O)N(C)[C@H](C(=O)N(C)C)CC(=O)N1C [PP2877] | A (a compound having 10 or more and less than 20 is denoted as A) | A (a compound having 10 or more and less than 20 is denoted as A) | 96 | – |
| CCC[C@H]1C(=O)N[C@@H]([C@@H](C)CC)C(=O)N(C2CC2)CC(=O)N(C)[C@H]2C/C=C\CCN(C2=O)[C@@H](Cc2ccc(C)cc2)C(=O)N(C)CC(=O)N[C@@H](CCc2cc(F)c3c(c2)CCC3)C(=O)N2C[C@H](OCC)C[C@H]2C(=O)NC2(CC(C)(C)C2)C(=O)N(C)[C@@H](C2CCCC2)C(=O)N(C)[C@H](C(=O)N(C)C)CC(=O)N1C [PP2879] | A (a compound having 10 or more and less than 20 is denoted as A) | A (a compound having 10 or more and less than 20 is denoted as A) | 122 | – |
| CCC[C@H]1C(=O)N[C@@H]([C@@H](C)CC)C(=O)N(C2CC2)CC(=O)N(C)[C@H]2C/C=C\CCN(C2=O)[C@@H](Cc2ccc(C)cc2)C(=O)N(C)CC(=O)N[C@@H](CCc2cc(F)c3c(c2)OCC3)C(=O)N2C[C@H](OCC)C[C@H]2C(=O)NC2(CC(C)(C)C2)C(=O)N(C)[C@@H](C2CCCC2)C(=O)N(C)[C@H](C(=O)N(C)C)CC(=O)N1C [PP2880] | A (a compound having 10 or more and less than 20 is denoted as A) | A (a compound having 10 or more and less than 20 is denoted as A) | 127 | – |
| CCC[C@H]1C(=O)N[C@@H]([C@@H](C)CC)C(=O)N(C2CC2)CC(=O)N(C)[C@H]2C/C=C\CCN(C2=O)[C@@H](Cc2ccc(C)cc2)C(=O)N(C)CC(=O)N[C@@H](CCc2ccc(C3CC3)c(OC)c2)C(=O)N2C[C@H](OCC)C[C@H]2C(=O)NC2(CC(C)(C)C2)C(=O)N(C)[C@@H](C2CCCC2)C(=O)N(C)[C@H](C(=O)N(C)C)CC(=O)N1C [PP2883] | A (a compound having 10 or more and less than 20 is denoted as A) | A (a compound having 10 or more and less than 20 is denoted as A) | 76.2 | – |
| CCC[C@H]1C(=O)N[C@@H]([C@@H](C)CC)C(=O)N(C2CC2)CC(=O)N(C)[C@H]2C/C=C\CCN(C2=O)[C@@H](Cc2ccc(C)cc2)C(=O)N(C)CC(=O)N[C@@H](CCc2ccc(C3CC3)c(F)c2)C(=O)N2C[C@H](OCC)C[C@H]2C(=O)NC2(CC(C)(C)C2)C(=O)N(C)[C@@H](C2CCCC2)C(=O)N(C)[C@H](C(=O)N(C)C)CC(=O)N1C [PP2884] | A (a compound having 10 or more and less than 20 is denoted as A) | A (a compound having 10 or more and less than 20 is denoted as A) | – | 35.9 |
| CCC[C@H]1C(=O)N[C@@H]([C@@H](C)CC)C(=O)N(C2CC2)CC(=O)N(C)[C@H]2C/C=C\CCN(C2=O)[C@@H](Cc2ccc(C)cc2)C(=O)N(C)CC(=O)N[C@@H](CCc2ccc(C3CC3)c(Cl)c2)C(=O)N2C[C@H](OCC)C[C@H]2C(=O)NC2(CC(C)(C)C2)C(=O)N(C)[C@@H](C2CCCC2)C(=O)N(C)[C@H](C(=O)N(C)C)CC(=O)N1C [PP2885] | A (a compound having 10 or more and less than 20 is denoted as A) | A (a compound having 10 or more and less than 20 is denoted as A) | 80.6 | – |
| CCC[C@H]1C(=O)N[C@@H]([C@@H](C)CC)C(=O)N(C2CC2)CC(=O)N(C)[C@H]2C/C=C\CCN(C2=O)[C@@H](Cc2ccc(C)cc2)C(=O)N(C)CC(=O)N[C@@H](CCc2ccc(C3CC3)c(C)c2)C(=O)N2C[C@H](OCC)C[C@H]2C(=O)NC2(CC(C)(C)C2)C(=O)N(C)[C@@H](C2CCCC2)C(=O)N(C)[C@H](C(=O)N(C)C)CC(=O)N1C [PP2886] | A (a compound having 10 or more and less than 20 is denoted as A) | A (a compound having 10 or more and less than 20 is denoted as A) | – | 112 |
| CCC[C@H]1C(=O)N[C@@H]([C@@H](C)CC)C(=O)N(C)CC(=O)N(C)[C@H]2C/C=C\CCN(C2=O)[C@@H](Cc2ccc(C(F)(F)F)cc2)C(=O)N(C)CC(=O)N[C@@H](CCc2cc(Cl)c3sccc3c2)C(=O)N2C[C@H](OCC)C[C@H]2C(=O)NC2(CC(C)(C)C2)C(=O)N(C)[C@@H](C(CC)CC)C(=O)N(C)[C@H](C(=O)N(C)C)CC(=O)N1C [PP2888] | AA (a compound having 20 or more is denoted as AA) | A (a compound having 10 or more and less than 20 is denoted as A) | 14.2 | – |
| CCC[C@H]1C(=O)N[C@@H]([C@@H](C)CC)C(=O)N(C)CC(=O)N(C)[C@H]2C/C=C\CCN(C2=O)[C@@H](Cc2ccc(C(F)(F)F)cc2)C(=O)N(C)CC(=O)N[C@@H](CCc2ccc3sc(C)c(C)c3c2)C(=O)N2C[C@H](OCC)C[C@H]2C(=O)NC2(CC(C)(C)C2)C(=O)N(C)[C@@H](C2CCCC2)C(=O)N(C)[C@H](C(=O)N(C)C)CC(=O)N1C [PP2889] | A (a compound having 10 or more and less than 20 is denoted as A) | A (a compound having 10 or more and less than 20 is denoted as A) | 20.9 | – |
| CCC[C@H]1C(=O)N[C@@H]([C@@H](C)CC)C(=O)N(C)CC(=O)N(C)[C@H]2C/C=C\CCN(C2=O)[C@@H](Cc2ccc(C)cc2)C(=O)N(C)CC(=O)N[C@@H](CCc2cc(Cl)c3sccc3c2)C(=O)N2C[C@H](OCC)C[C@H]2C(=O)NC2(CC(C)(C)C2)C(=O)N(C)[C@@H](C(CC)CC)C(=O)N(C)[C@H](C(=O)N(C)C)CC(=O)N1C [PP2890] | AA (a compound having 20 or more is denoted as AA) | A (a compound having 10 or more and less than 20 is denoted as A) | 10.3 | – |
| CCC[C@H]1C(=O)N[C@@H]([C@@H](C)CC)C(=O)N(C)CC(=O)N(C)[C@H]2C/C=C\CCN(C2=O)[C@@H](Cc2ccc(C(F)(F)F)cc2)C(=O)N(C)CC(=O)N[C@@H](CCc2ccc3sc(F)c(C)c3c2)C(=O)N2C[C@H](OCC)C[C@H]2C(=O)NC2(CC(C)(C)C2)C(=O)N(C)[C@@H](C(CC)CC)C(=O)N(C)[C@H](C(=O)N(C)C)CC(=O)N1C [PP2892] | A (a compound having 10 or more and less than 20 is denoted as A) | A (a compound having 10 or more and less than 20 is denoted as A) | 8 | – |
| CCC[C@H]1C(=O)N[C@@H]([C@@H](C)CC)C(=O)N(C)CC(=O)N(C)[C@H]2C/C=C\CCN(C2=O)[C@@H](Cc2ccc(C(F)(F)F)cc2)C(=O)N(C)CC(=O)N[C@@H](CCc2ccc3c(C)c(C)n(C)c3c2)C(=O)N2C[C@H](OCC)C[C@H]2C(=O)NC2(CC(C)(C)C2)C(=O)N(C)[C@@H](C2CCCC2)C(=O)N(C)[C@H](C(=O)N(C)C)CC(=O)N1C [PP2893] | A (a compound having 10 or more and less than 20 is denoted as A) | A (a compound having 10 or more and less than 20 is denoted as A) | 72 | – |
| CCC[C@H]1C(=O)N[C@@H]([C@@H](C)CC)C(=O)N(C)CC(=O)N(C)[C@H]2C/C=C\CCN(C2=O)[C@@H](Cc2ccc(C)cc2)C(=O)N(C)CC(=O)N[C@@H](CCc2ccc3sc(F)c(C)c3c2)C(=O)N2C[C@H](OCC)C[C@H]2C(=O)NC2(CC(C)(C)C2)C(=O)N(C)[C@@H](C(CC)CC)C(=O)N(C)[C@H](C(=O)N(C)C)CC(=O)N1C [PP2894] | AA (a compound having 20 or more is denoted as AA) | A (a compound having 10 or more and less than 20 is denoted as A) | 9.6 | – |
| CCC[C@H]1C(=O)N[C@@H]([C@@H](C)CC)C(=O)N(C)CC(=O)N(C)[C@H]2C/C=C\CCN(C2=O)[C@@H](Cc2ccc(C)cc2)C(=O)N(C)CC(=O)N[C@@H](CCc2ccc3c(C)c(C)n(C)c3c2)C(=O)N2C[C@H](OCC)C[C@H]2C(=O)NC2(CC(C)(C)C2)C(=O)N(C)[C@@H](C2CCCC2)C(=O)N(C)[C@H](C(=O)N(C)C)CC(=O)N1C [PP2895] | A (a compound having 10 or more and less than 20 is denoted as A) | A (a compound having 10 or more and less than 20 is denoted as A) | 59 | – |
